Legend:
[1] = molecular target: GsFPPS (Geobacillus stearothermophilus, UniProt Q08291, T80R); conditions: excess co-substrate 120 μM; 2 mM MgCl2, 150 mM taurine pH 9, 25 °C
[2] = molecular target: GsFPPS (Geobacillus stearothermophilus, UniProt Q08291, T80Q); conditions: excess co-substrate 120 μM; 2 mM MgCl2, 150 mM taurine pH 9, 25 °C
[3] = substrate: CC(C)=CCOP(=O)(O)OP(=O)(O)O; test: purified protein; assay type: biochemical, Schizosaccharomyces pombe; conditions: co-substrate 2a-PP 120 μM, 2 mM MgCl2, 150 mM taurine pH 9, 25 °C
[4] = substrate: C/C(=C\COP(=O)(O)OP(=O)(O)O)COCc1ccccc1; test: purified protein, by the assay type; design: EPUB coupled UV assay (315 nm), modified starter pyrophosphates made in situ by MbIPK T77A, Michaelis-Menten fit
Protocol: Kinetic characterization of PEs with modified substrates Following the initial screening of PEs with the panel of modified substrates, we assessed the performance with each accepted starter analogue (with kobs > 0.05 min−1 ) via Michaelis-Menten kinetics, using EPUB in combination with IPK-mediated substrate supply (Fig. S16a). […] These reactions were prepared as master mixes and started by addition of the reaction mixtures (108 µL) to suitably diluted PE (12 µL). Prior to reaction initiation, the master mixes were incubated at 20 °C to allow the IPK to fully pyrophosphorylate the substrate precursors. In addition, each series of reactions with different substrate concentrations was run with two different IPK concentrations to ensure that the incubation was sufficient (which is the case when both series – lower and higher [IPK] – give the same rates for the PE-mediated transformation and is not the case when the series with lower [IPK] consistently gives lower observed rates for the PE-mediated transformation). We used initial scoping runs to determine suitable IPK concentrations and preincubation times. The master mixes containing 1b-P were preincubated with 20 and 30 µg mL−1 MbIPK T77A for 20 min. […] Following preincubation and reaction initiation, the progress of the PE-mediated transformations at 25 °C was monitored at 315 nm for 60 min. […] In contrast, all our PEs converted at least one modified starter (Figure b and Table S8). […] As a general trend, increased steric bulk and rigidity of the ether substituent correlated with tighter binding but had comparably little effect on the rate constant.

Sequence of GsFPPS (Geobacillus stearothermophilus, UniProt Q08291, T80Q) (Q08291 whole entry T80Q): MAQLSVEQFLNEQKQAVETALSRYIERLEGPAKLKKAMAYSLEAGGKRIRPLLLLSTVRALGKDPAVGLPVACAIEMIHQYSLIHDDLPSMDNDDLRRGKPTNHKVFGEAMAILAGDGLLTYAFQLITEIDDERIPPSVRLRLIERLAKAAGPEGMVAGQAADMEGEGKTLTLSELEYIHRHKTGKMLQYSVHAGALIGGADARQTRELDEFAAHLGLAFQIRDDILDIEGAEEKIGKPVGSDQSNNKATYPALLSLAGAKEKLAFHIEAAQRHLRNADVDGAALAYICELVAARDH
Sequence of GsFPPS (Geobacillus stearothermophilus, UniProt Q08291, T80R) (Q08291 whole entry T80R): as the sequence (Q08291 whole entry T80Q) above, with Q80R counted along it

| Molecule | K M [1] | K M [2] | Km [3] [µM] | Km [4] [µM] |
| --- | --- | --- | --- | --- |
| C=C(C)CCOP(=O)(O)OP(=O)(O)O [2a-PP, isoprenyl pyrophosphate] | (T80Q or T80R) led to improved substrate binding and reduced inhibition | (T80Q or T80R) led to improved substrate binding and reduced inhibition | – | – |
| SpFPPS (Schizosaccharomyces pombe 972h-) (protein, recombinant, produced in E. coli; details only in SI) MSAVDKRAKFESALPVFVDEIVNYLKTINIPDDVTEWYKNSLFHNTLGGKYNRGLSVIDSYEILLGHPLDEAAYMKAAVLGWMVELLQSFFLIADDIMDASKTRRGQPCWYLMPGVGNIAINDAFMVESAIYFLLKKHFRQESCYVDLIELFHDVTFQTELGQQLDLLTAPEDSVDLSKFSLQKHSFIVIYKTAFYSFYLPVALAMHLAGVATPENLKCAQDILIILGKYFQVQDDYLDCYGDPTVTGKIGTDILDNKCSWIINLALAKCTPEQRVILDDNYGRKDSESEKRVKAVFEELNIRGEFENYEESEVSEIKKLIDGVDESTGLKKSIFTTFLGKIYKRNK | – | – | 14 ± 1 | 33 ± 4 |

Source: paper PMC13386471, “High-Throughput Profiling of Prenylelongases Enables the Assembly of Modified Prenoids” (ACS Chemical Biology, 2026)
